SMILES strings stand for the structures.

Data set [1] in a line: Aqueous solubility of the compound. In kind it is physicochemical. As to conditions: aqueous medium.
A short description of data set [2]: Oral bioavailability in rat at 10 mg/kg. The conditions noted are these: in vivo. In kind it is ADME, organism-based.
Data set [3] in a line: Tmax in rat at 10 mg/kg, po. The conditions noted are these: in vivo. The data set is classed as ADME, organism-based.
Data set [4] can be described thus: Lipophilicity, log P of the compound. The data set is classed as physicochemical. The conditions noted are these: octanol/water.
Data set [5] can be described thus: Dissociation constant, pKa of the compound. The data set is classed as physicochemical.

`COc1ccccc1S(=O)(=O)/C=C/c1ccccc1Cl` gave a solubility in data set [1] of less than 0.01 mg/mL.

Take `Cl.O=S(=O)(/C=C/c1ncccc1F)c1ccc(OCCCN2CCOCC2)cc1`: in data set [2], the bioavailability was 45.3%. This compound also gave a solubility in data set [1] greater than 30 mg/mL. Moreover, the Tmax in data set [3] was 24 min. For the same compound, in data set [4], the logP worked out at 2.29. In data set [5], this compound showed a pKa of 7.58.

One may read the solubility as the dissolved amount per volume that the medium holds. As usually defined, the bioavailability is the share of a dose that reaches the circulation, judged against a reference dose that is usually intravenous. Low values mean little systemic uptake, high ones much systemic uptake. As a reminder, the Tmax is the time from dosing to the highest level. Usually logP stands for the decadic logarithm of the partition coefficient of the neutral form, usually between octanol and water. A high value points to higher lipophilicity. As usually defined, the pKa is the negative logarithm of the acid dissociation constant. Low readings indicate a stronger acid or weaker base, high ones a weaker acid or stronger base.

For the origin of these results see ChEMBL document CHEMBL4330092, “Optimization of Vinyl Sulfone Derivatives as Potent Nuclear Factor Erythroid 2-Related Factor 2 (Nrf2) Activators for Parkinson's Disease Therapy” (J Med Chem, 2019).
